Laboratory results as given in US9278940B2, “Cyclic amines as bromodomain inhibitors” (Zenith Epigenetics Corp., priority 2012, dated 2016).
Counter-ions that a name gives are not always drawn.

Legend:
[1] = In vivo efficacy in experimental autoimmune encephalomyelitis (EAE) model of MS; design: species or system mouse; conditions: female C57Bl/6 mice, MOG35-55/CFA and pertussis toxin, 28 day preventative model
Text: Experimental autoimmune encephalomyelitis (EAE) is a T-cell-mediated autoimmune disease of the CNS which shares many clinical and histopathological features with human multiple sclerosis (MS). EAE is the most commonly used animal model of MS. […] Cytokines IL-23, IL-6 and IL-17, which are either critical for Th1 and Th17 differentiation or produced by these T cells, play a critical and non-redundant role in EAE development. Therefore, drugs targeting production of these cytokines are likely to have therapeutic potential in treatment of MS.
This study was conducted to assess the potential anti-inflammatory effect of test compounds to inhibit the inflammation and clinical EAE scores of a 28 day preventative mouse model. In this model, EAE was induced by MOG35-55/CFA immunization and pertussis toxin injection in female C57Bl/6 mice.

IL-6 and IL-17 cytokines = assay: In vivo efficacy in mouse endotoxemia model; conditions: C57/Bl6 mice, oral 75 mg/kg, inhibition of IL-6 and IL-17 post 4 hour LPS challenge 0.5 mg/kg intraperitoneally
Experimental: Sub lethal doses of Endotoxin (E. Coli bacterial lipopolysaccharide) were administered to animals to produce a generalized inflammatory response which was monitored by increases in secreted cytokines. Compounds were administered to C57/Bl6 mice orally at 75 mg/kg dose to evaluate inhibition in IL-6 and IL-17 cytokines post 4 hour challenge with Lipopolysaccharide (LPS) at 0.5 mg/kg dose intraperitoneally.

Brd4 bromodomain 1 = target: T1, Brd4 bromodomain 1 (Homo sapiens, UniProt O60885); assay: Inhibition of tetra-acetylated histone H4 binding to BET bromodomain (TR-FRET); design: key: Active: Compounds with an IC50 value less than 30 μM were deemed to be active.; Not Active: Compounds with an IC50 value less than 30 μM were deemed to be active; conditions: Brd4 bromodomain 1, tetra-acetylated histone H4 peptide
T1 construct: made in house; host or cells: E. coli BL21(DE3)
Method in brief: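 N-terminally His-tagged bromodomain (200 nM, E. coli-expressed, Ni affinity and SEC purified) with biotinylated tetra-acetylated H4 peptide (25-50 nM), Eu-cryptate streptavidin and XL665 anti-His; 2 h at room temperature in HEPES pH 7.4/KF buffer, 0.2% DMSO. The 665/620 nm ratio decrease gave IC50 from dose-response curves.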

hMCP-1 mRNA = assay: Inhibition of hMCP-1 mRNA transcription in human PBMCs; type: cell-based; design: key: Active: Compounds with an IC50 value less than 30 μM are deemed to be active.; Not Active: Compounds with an IC50 value less than 30 μM are deemed to be active; conditions: Human Peripheral Blood Mononuclear Cells, 3 h
Experimental: In this example, hMCP-1 mRNA in human peripheral blood mononuclear cells was quantitated to measure the transcriptional inhibition of hMCP-1 when treated with a compound of the present disclosure.
Human Peripheral Blood Mononuclear Cells were plated (1.0×10^5 cells per well) in a 96-well plate in 45 μL RPMI-1640 containing 10% FBS and penicillin/streptomycin. The cells were treated with the test compound (45 μL at 2× concentration), and then the cells were incubated at 37° C. for 3 h before the cells were harvested. At time of harvest, cells were transferred to V-bottom plates and centrifuged at 800 rpm for 5 minutes. Spent media was removed and cell lysis solution (70 μL) was added the cells in each well and incubated for 5-10 min at room temperature, to allow for complete cell lysis and detachment. mRNA was then prepared using the “mRNA Catcher PLUS plate” (Invitrogen), according to the protocol supplied. After the last wash, as much wash buffer as possible was aspirated without allowing the wells to dry. […]
The eluted mRNA isolated was then used in a one-step quantitative real-time PCR reaction, using components of the Ultra Sense Kit together with Applied Biosystems primer-probe mixes. Real-time PCR data was analyzed, normalizing the Ct values for hMCP-1 to an internal control, prior to determining the fold induction of each unknown sample, relative to the control.

- FRET activity (IC50 < 30 μM) (Brd4 bromodomain 1): Active
- MCP-1 activity (IC50 < 30 μM) (hMCP-1 mRNA): Active
Structure (SMILES): COc1cc(OC)c2c(=O)[nH]c(-c3cccc(N4CCN(C(C)C)CC4)n3)nc2c1 [Example 17, 2-(6-(4-Isopropylpiperazin-1-yl)pyridin-2-yl)-5,7-dimethoxyquinazolin-4(3H)-one Hydrochloride]
- In vivo activity [1]: Active
- In vivo activity (IL-6 and IL-17 cytokines): Active
